Test results taken from ChEMBL document CHEMBL4627402, “Design and Synthesis of Styrenylcyclopropylamine LSD1 Inhibitors” (ACS Med Chem Lett, 2020).
One block for each compound: values may come before it. Calls of active or inactive are those of the source. The calls are words filed in the database; no cut-off is given here.

How the values were obtained:
[1] = target: T1, Lysine-specific histone demethylase 1A (Homo sapiens, UniProt O60341)
Description: Inhibition of LSD1 in human MV4-11 cells assessed as induction of LY96 mRNA expression incubated for 16 hrs by chemiluminescent method

[2] = target: T1, Lysine-specific histone demethylase 1A; remark: listed apart in the source
[3] = Metabolic stability in dog liver microsomes assessed as intrinsic clearance; type: ADME, Canis lupus familiaris, Microsome; conditions: read-out: CLH
[4] = Metabolic stability in rat liver microsomes assessed as intrinsic clearance; type: ADME, Microsome; conditions: read-out: CLH
Kasumi 1 [5] = assay: Growth inhibition on human Kasumi-1 cells measured upto 12 days by Cell Titer-Glo luminescent cell viability assay; type: functional; conditions: Kasumi 1, 288 h
[6] = Metabolic stability in human liver microsomes assessed as intrinsic clearance; type: ADME, Microsome; conditions: read-out: CLH
[7] = Metabolic stability in mouse liver microsomes assessed as intrinsic clearance; type: ADME, Microsome; conditions: read-out: CLH
[8] = target: T1, Lysine-specific histone demethylase 1A; remark: listed apart in the source
[9] = target: T1, Lysine-specific histone demethylase 1A; remark: listed apart in the source
[10] = target: T1, Lysine-specific histone demethylase 1A; remark: listed apart in the source
SKM-1 = assay: Growth inhibition on human SKM1 cells measured upto 12 days by Cell Titer-Glo luminescent cell viability assay; type: functional; conditions: SKM-1, 288 h
Mus musculus = assay: Induction of LY96 mRNA in CB17-scid mouse xenografted with human Kasumi-1 cells at 0.5 and 1.5 mg/kg, po administered for 14 days; type: functional, organism-based
[11] = Half life in mouse at 1 mg/kg, iv; type: ADME, organism-based; conditions: in vivo
[12] = Clearance in mouse at 1 mg/kg, iv; type: ADME, organism-based; conditions: in vivo
SET-2 = assay: Growth inhibition on human SET2 cells measured upto 12 days by Cell Titer-Glo luminescent cell viability assay; type: functional; conditions: SET-2, 288 h
[13] = Toxicity in CB17 SCID mouse xenografted with human Kasumi-1 cells assessed body weight loss at 1.5 mg/kg, po administered for 14 days; type: organism-based; conditions: in vivo, 336 h
[14] = target: T2, Amine oxidase [flavin-containing] B (Homo sapiens, UniProt P27338); assay: Inhibition of MAO-B (unknown origin)
T2 sequence (P27338 whole entry): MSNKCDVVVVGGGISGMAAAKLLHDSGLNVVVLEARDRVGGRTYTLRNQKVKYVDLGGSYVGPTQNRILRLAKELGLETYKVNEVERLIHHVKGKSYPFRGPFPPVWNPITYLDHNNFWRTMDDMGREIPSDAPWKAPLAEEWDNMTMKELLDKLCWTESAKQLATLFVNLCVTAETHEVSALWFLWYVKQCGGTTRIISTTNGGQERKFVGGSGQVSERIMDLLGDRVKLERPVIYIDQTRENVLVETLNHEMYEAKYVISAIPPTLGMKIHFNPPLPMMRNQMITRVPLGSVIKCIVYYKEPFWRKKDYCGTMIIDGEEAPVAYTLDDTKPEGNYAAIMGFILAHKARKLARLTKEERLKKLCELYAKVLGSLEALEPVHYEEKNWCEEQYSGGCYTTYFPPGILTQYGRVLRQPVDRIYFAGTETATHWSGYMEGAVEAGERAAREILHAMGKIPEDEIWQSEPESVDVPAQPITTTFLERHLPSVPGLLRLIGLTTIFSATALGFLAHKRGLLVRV

Kasumi 1 [15] = assay: Antitumor activity against human Kasumi-1 cells xenografted in oral dosed CB17 SCID mouse assessed as tumor growth inhibition administered for 14 days; type: functional, organism-based
[16] = Cmax in mouse at 5 mg/kg, po; type: ADME, organism-based; parameters: dose 5 mg/kg, route oral; conditions: in vivo
MOLM-13 = assay: Growth inhibition on human MOLM13 cells measured upto 12 days by Cell Titer-Glo luminescent cell viability assay; type: functional; conditions: MOLM-13, 288 h
[17] = target: T3, Amine oxidase [flavin-containing] A (Homo sapiens, UniProt P21397); assay: Inhibition of MAO-A (unknown origin)
T3 sequence (P21397 whole entry): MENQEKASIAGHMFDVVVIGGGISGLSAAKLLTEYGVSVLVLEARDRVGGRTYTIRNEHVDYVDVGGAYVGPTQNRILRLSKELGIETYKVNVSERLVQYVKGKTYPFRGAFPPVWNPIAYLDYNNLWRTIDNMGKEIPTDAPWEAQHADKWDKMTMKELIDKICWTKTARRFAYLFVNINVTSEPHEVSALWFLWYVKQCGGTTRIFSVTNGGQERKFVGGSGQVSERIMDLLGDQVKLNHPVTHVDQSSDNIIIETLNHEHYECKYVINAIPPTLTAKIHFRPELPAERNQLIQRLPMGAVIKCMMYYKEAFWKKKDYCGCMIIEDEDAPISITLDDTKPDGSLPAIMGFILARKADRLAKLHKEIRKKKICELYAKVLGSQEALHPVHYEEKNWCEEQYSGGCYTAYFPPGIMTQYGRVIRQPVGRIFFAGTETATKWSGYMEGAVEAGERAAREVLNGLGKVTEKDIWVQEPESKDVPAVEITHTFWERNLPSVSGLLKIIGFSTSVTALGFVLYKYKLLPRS

[18] = Oral bioavailability in mouse at 5 mg/kg; type: ADME, organism-based; conditions: in vivo
OCI-AML-5 = assay: Growth inhibition on human OCI-AML5 cells measured upto 12 days by Cell Titer-Glo luminescent cell viability assay; type: functional; conditions: OCI-AML-5, 288 h
[19] = AUC (0 to infinity) in mouse at 5 mg/kg, po; type: ADME, organism-based; parameters: dose 5 mg/kg, time infinity, route oral; conditions: in vivo
OCI-AML-3 = assay: Growth inhibition on human OCI-AML3 cells measured upto 12 days by Cell Titer-Glo luminescent cell viability assay; type: functional; conditions: OCI-AML-3, 288 h
MV4-11 = assay: Growth inhibition on human MV4-11 cells measured upto 12 days by Cell Titer-Glo luminescent cell viability assay; type: functional; conditions: MV4-11, 288 h
[20] = Volume of distribution at steady state in mouse at 1 mg/kg, iv; type: ADME, organism-based; conditions: in vivo, read-out: Vdss
[21] = Toxicity in CB17 SCID mouse xenografted with human Kasumi-1 cells assessed body weight loss at 0.5 mg/kg, po administered for 14 days; type: organism-based; conditions: in vivo, 336 h
NOMO-1 = assay: Growth inhibition on human NOMO1 cells measured upto 12 days by Cell Titer-Glo luminescent cell viability assay; type: functional; conditions: NOMO-1, 288 h
[22] = Protein binding in plasma (unknown origin) assessed as parent compound remaining; type: ADME, cell-free

SMILES: CC/C(=C\c1ccccc1)[C@@H]1C[C@H]1NC1CCN(CCO)CC1
EC50 [1]: 4 nM | IC50 [2]: < 2.6 nM | microsomal CLint [3]: 106 µL/min/mg | microsomal CLint [4]: 27 µL/min/mg | GI50 (Kasumi 1 [5]): 3 nM | microsomal CLint [6]: 41 µL/min/mg | microsomal CLint [7]: 46 µL/min/mg

SMILES: CC/C(=C\c1ccccc1)[C@@H]1C[C@H]1NC1CC2(C1)CN(C1COC1)C2
microsomal CLint [3]: 283 µL/min/mg | microsomal CLint [4]: 43 µL/min/mg | GI50 (Kasumi 1 [5]): 1 nM | microsomal CLint [6]: 49 µL/min/mg | microsomal CLint [7]: 85 µL/min/mg

SMILES: CC/C(=C\c1ccccc1)[C@@H]1C[C@H]1NC1CC2(C1)CN(C(C)=O)C2
microsomal CLint [3]: 87 µL/min/mg | microsomal CLint [4]: 48 µL/min/mg | GI50 (Kasumi 1 [5]): 41 nM | microsomal CLint [6]: 18 µL/min/mg | microsomal CLint [7]: 76 µL/min/mg

SMILES: CC/C(=C\c1ccccc1)[C@@H]1C[C@H]1NC1CC2(C1)CN(CCO)C2
GI50 (SKM-1): 14 nM | Activity (Mus musculus): Active | EC50 [1]: 2 nM | half-life [11]: 25.3 h | Ki [8]: 6.1 nM | IC50 [2]: < 3 nM | Kinact [9]: 0.38 min⁻¹ | clearance [12]: 162 mL/min/kg | Ratio [10]: 1e+06 M⁻¹ s⁻¹ | GI50 (SET-2): 37 nM | microsomal CLint [3]: 41 µL/min/mg | Activity [13]: <= 5% | IC50 [14]: > 80000 nM | microsomal CLint [4]: 15 µL/min/mg | GI50 (Kasumi 1 [5]): 1 nM | TGI (Kasumi 1 [15]): Dose-dependent effect | Cmax [16]: 40 ng/mL | GI50 (MOLM-13): 893 nM | IC50 [17]: > 80000 nM | bioavailability [18]: 59% | GI50 (OCI-AML-5): 332 nM | AUC(0-inf) [19]: 189 ng·h/mL | GI50 (OCI-AML-3): 271 nM | GI50 (MV4-11): 5 nM | microsomal CLint [6]: 9 µL/min/mg | Vd [20]: 118 L/kg | microsomal CLint [7]: 25 µL/min/mg | Activity [21]: Non-Toxic | GI50 (NOMO-1): 78 nM

SMILES: C(=C\C1CC1NCC1CCNCC1)/c1ccccc1 (stereo not given)
fraction unbound [22]: ≤ 0.05

SMILES: CC/C(=C\c1ccccc1)[C@@H]1C[C@H]1NC1CC2(CCN(CCO)CC2)C1
EC50 [1]: 5 nM | IC50 [2]: < 3 nM | microsomal CLint [3]: 39 µL/min/mg | microsomal CLint [4]: 19 µL/min/mg | GI50 (Kasumi 1 [5]): 1 nM | microsomal CLint [6]: 10 µL/min/mg | microsomal CLint [7]: 28 µL/min/mg

SMILES: CC/C(=C\c1ccccc1)[C@@H]1C[C@H]1N[C@H]1CC[C@H](NCCO)CC1 (racemic)
EC50 [1]: 6 nM | IC50 [2]: < 1.8 nM

Second part, led by results:

microsomal CLint [3]: 105 µL/min/mg | microsomal CLint [4]: 80 µL/min/mg | microsomal CLint [6]: 67 µL/min/mg | microsomal CLint [7]: 812 µL/min/mg
SMILES: CC/C(=C\c1ccccc1)[C@@H]1C[C@H]1NC1CC2(C1)CN(S(C)(=O)=O)C2
GI50 (Kasumi 1 [5]): 17 nM

EC50 [1]: 54 nM | Ki [8]: 9.6 nM | IC50 [2]: 212 nM | Kinact [9]: 0.39 min⁻¹ | Ratio [10]: 680 M⁻¹ s⁻¹
SMILES: O=C(O)c1ccc(CN2CCC(CN[C@@H]3C[C@H]3c3ccccc3)CC2)cc1 [GSK2879552]
GI50 (Kasumi 1 [5]): 20 nM

microsomal CLint [3]: 14 µL/min/mg | microsomal CLint [4]: 19 µL/min/mg | microsomal CLint [6]: 11 µL/min/mg | microsomal CLint [7]: 17 µL/min/mg
SMILES: CC/C(=C\c1ccccc1)[C@@H]1C[C@H]1NC1CC2(CNC2)C1
GI50 (Kasumi 1 [5]): 11 nM

EC50 [1]: 7 nM | IC50 [2]: < 3 nM | microsomal CLint [3]: 480 µL/min/mg | microsomal CLint [4]: 175 µL/min/mg | microsomal CLint [6]: 133 µL/min/mg | microsomal CLint [7]: 883 µL/min/mg
SMILES: CC/C(=C\c1ccccc1)[C@@H]1C[C@H]1NC1CC2(C1)CN(CC(F)F)C2
GI50 (Kasumi 1 [5]): 110 nM

IC50 [2]: < 2.8 nM
SMILES: C/C(=C\c1ccccc1)[C@@H]1C[C@H]1NC1CCNCC1 (racemic)
